Where two headings read alike, the source gives them in different places.
Experiments:
E. coli DNA gyrase = target: T1, E. coli DNA gyrase (Escherichia coli, UniProt P0AES6); assay: biochemical; settings: read-out: IC50
T1 construct: purchased Inspiralis
Procedure, shortened: (§1)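 Triplex-capture format: plasmid bound to a biotinylated oligonucleotide on streptavidin plates after reaction at 37 °C for 30 min. The reaction was stopped with TF buffer (50 mM NaOAc pH 5.0, 50 mM NaCl, 50 mM MgCl2), and captured DNA was stained with SybrGOLD. IC50 values are the mean of three independent measurements.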

S. aureus DNA gyrase = target: T2, S. aureus DNA gyrase (Staphylococcus aureus, UniProt P0A0K8); assay: biochemical; settings: for remaining activity at 1 µM: 1 μM compound
T2 construct: purchased Inspiralis
Procedure, shortened: as §1

P. aeruginosa ATCC 27853 = assay: Microbroth dilution MIC (CLSI); format: cell-based; settings: Pseudomonas aeruginosa, ATCC27853
Procedure, shortened: (§2)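 CLSI microbroth dilution (M07-A8 aerobes, M11-A8 anaerobes) with two-fold serial compound dilutions made in 100% DMSO. MIC read as lowest concentration giving no visible growth.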

K. pneumoniae ATCC 10031 = assay: Microbroth dilution MIC (CLSI); format: cell-based; settings: Klebsiella pneumoniae, ATCC10031; K. pneumoniae ATCC 10031; read-out: MIC
Procedure, shortened: as §2

[1] = test system: S. aureus ATCC 43300 (MRSA); assay: Microbroth dilution MIC (CLSI); format: cell-based; settings: Staphylococcus aureus; S. aureus ATCC 43300 (MRSA); read-out: MIC
Procedure, shortened: as §2

E. coli ATCC 25922 = assay: Microbroth dilution MIC (CLSI); format: cell-based; settings: Escherichia coli, ATCC25922
Procedure, shortened: as §2

E. faecalis ATCC 29212 = assay: Microbroth dilution MIC (CLSI); format: cell-based; settings: Enterococcus faecalis, ATCC29212; E. faecalis ATCC 29212; read-out: MIC
Procedure, shortened: as §2

[2] = test system: E. spp. cloacae ATCC 13047; assay: Microbroth dilution MIC (CLSI); format: cell-based; settings: Enterobacter cloacae, ATCC13047; E. spp. cloacae ATCC 13047; read-out: MIC
Procedure, shortened: as §2

S. aureus ATCC 29213 = assay: Microbroth dilution MIC (CLSI); format: cell-based; settings: Staphylococcus aureus, ATCC29213
Procedure, shortened: as §2

A. baumannii ATCC 17978 = assay: Microbroth dilution MIC (CLSI); format: cell-based; settings: Acinetobacter baumannii, ATCC17978; A. baumannii ATCC 17978; read-out: MIC
Procedure, shortened: as §2

[3] = target: DNA gyrase from Mycobacterium tuberculosis (Mycobacterium tuberculosis, UniProt P9WG45); assay: Gel-based supercoiling assay; format: biochemical; settings: M. tuberculosis DNA gyrase
Excerpt: Example compound 18 was additionally evaluated against DNA gyrase from Mycobacterium tuberculosis using a gel-based supercoiling assay.

[4] = target: T3, S. aureus topoisomerase IV (Staphylococcus aureus, UniProt P0C1S7); assay: Topoisomerase IV inhibition assay (Inspiralis, streptavidin-coated plates); format: biochemical; settings: S. aureus topo IV; read-out: IC50
T3 construct: purchased Inspiralis
Method: Inhibitory activities for compounds of the present invention were determined on E. coli and S. aureus DNA gyrase and topoisomerase IV in an assay from Inspiralis on streptavidin-coated 96-well microtiter plates from Thermo scientific Pierce. […] After washing off the unbound oligonucleotide, the enzyme test was performed. […] Reaction solutions were incubated at 37° C. for 30 min. After that, the TF buffer (50 mM NaOAc with pH 5.0, 50 mM NaCl and 50 mM MgCl2) was added to terminate the enzymatic reaction. After additional incubation for 30 min at rt, during which biotin-oligonucleotide-plasmid triplex was formed, the unbound plasmid was washed off using TF buffer and SybrGOLD in T10 buffer (10 mM Tris HCl with pH 8.0 and 1 mM EDTA) was added. […] Initial screening was done at 100 or 10 nM concentration of inhibitors against E. coli DNA gyrase or 1 μM or 100 nM concentration against S. aureus DNA gyrase and E. coli and S. aureus topo IV. […] GraphPad Prism 6.0 software was used to calculate the IC50 values. The result is given as the average value of three independent measurements. […] Chemoth.

[5] = test system: A. baumannii (ATCC 19606); assay: Microbroth dilution MIC (CLSI); format: cell-based; settings: Acinetobacter baumannii, ATCC19606
Procedure, shortened: as §2

E. faecium (ATCC 35667) = assay: Microbroth dilution MIC (CLSI); format: cell-based; settings: Enterococcus faecium, ATCC35667
Procedure, shortened: as §2

[6] = test system: K. pneumoniae (ATCC 700603); assay: Microbroth dilution MIC (CLSI); format: cell-based; settings: Klebsiella pneumoniae, ATCC700603
Procedure, shortened: as §2

E. coli topoisomerase IV = target: T4, E. coli topoisomerase IV (Escherichia coli, UniProt P20083); assay: biochemical; settings: read-out: IC50
T4 construct: purchased Inspiralis
Procedure, shortened: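 Supercoiling/relaxation read via biotin-oligonucleotide triplex capture on streptavidin plates; reactions 30 min at 37° C, stopped with TF buffer pH 5.0, plasmid stained with SybrGOLD.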

[7] = test system: E. aerogenes (ATCC 13408); assay: Microbroth dilution MIC (CLSI); format: cell-based, Enterobacter aerogenes; settings: Klebsiella aerogenes, ATCC13408
Method: The chemical entities described in the present invention were assessed for their antimicrobial activity using a microbroth dilution assay as recommended by the CLSI (Methods for Dilution Antimicrobial Susceptibility Tests for Bacteria That Grow Aerobically, and Methods for Antimicrobial Susceptibility Testing of Anaerobic Bacteria, Clinical and Laboratory Standards Institute, Document M07-A8, and M11-A8, Wayne, PA 19087, USA, 2012.). Compounds were dissolved by using 100% DMSO. Serial two-fold dilutions of each compound were made by using 100% DMSO as the diluent.
A library of Gram-negative and Gram-positive microbes and their drug- and multidrug-resistant variants were employed as test organisms. The MIC (minimum inhibitory concentration) was determined as the lowest concentration of an individual drug that lead to no visible growth.

[8] = S. aureus DNA gyrase, read-out: RA (residual activity of the enzyme)
[9] = P. aeruginosa ATCC 27853, read-out: MIC
[10] = E. coli ATCC 25922, read-out: MIC
[11] = S. aureus ATCC 29213, read-out: MIC

T3 sequence (P0C1U9 whole entry): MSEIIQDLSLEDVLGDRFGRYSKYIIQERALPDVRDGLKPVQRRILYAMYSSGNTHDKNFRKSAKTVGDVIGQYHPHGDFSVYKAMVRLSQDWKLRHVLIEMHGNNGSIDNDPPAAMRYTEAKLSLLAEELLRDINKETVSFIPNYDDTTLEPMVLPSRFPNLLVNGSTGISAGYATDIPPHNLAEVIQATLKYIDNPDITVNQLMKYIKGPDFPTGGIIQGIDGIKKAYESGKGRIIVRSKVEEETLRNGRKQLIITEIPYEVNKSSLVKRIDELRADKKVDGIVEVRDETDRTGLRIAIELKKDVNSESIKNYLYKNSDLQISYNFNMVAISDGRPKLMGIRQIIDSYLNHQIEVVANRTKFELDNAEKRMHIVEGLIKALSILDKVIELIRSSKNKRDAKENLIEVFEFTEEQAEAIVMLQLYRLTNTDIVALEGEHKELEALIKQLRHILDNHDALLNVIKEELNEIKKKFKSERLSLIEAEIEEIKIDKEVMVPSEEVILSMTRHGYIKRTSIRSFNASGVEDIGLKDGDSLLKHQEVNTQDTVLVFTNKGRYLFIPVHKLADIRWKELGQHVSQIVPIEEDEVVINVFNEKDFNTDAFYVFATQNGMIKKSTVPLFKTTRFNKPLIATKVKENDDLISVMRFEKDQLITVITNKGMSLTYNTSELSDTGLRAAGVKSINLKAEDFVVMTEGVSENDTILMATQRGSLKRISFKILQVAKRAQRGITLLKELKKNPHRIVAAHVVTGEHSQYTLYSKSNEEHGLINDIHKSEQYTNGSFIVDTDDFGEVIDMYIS
T3 sequence (P0C1S7 whole entry): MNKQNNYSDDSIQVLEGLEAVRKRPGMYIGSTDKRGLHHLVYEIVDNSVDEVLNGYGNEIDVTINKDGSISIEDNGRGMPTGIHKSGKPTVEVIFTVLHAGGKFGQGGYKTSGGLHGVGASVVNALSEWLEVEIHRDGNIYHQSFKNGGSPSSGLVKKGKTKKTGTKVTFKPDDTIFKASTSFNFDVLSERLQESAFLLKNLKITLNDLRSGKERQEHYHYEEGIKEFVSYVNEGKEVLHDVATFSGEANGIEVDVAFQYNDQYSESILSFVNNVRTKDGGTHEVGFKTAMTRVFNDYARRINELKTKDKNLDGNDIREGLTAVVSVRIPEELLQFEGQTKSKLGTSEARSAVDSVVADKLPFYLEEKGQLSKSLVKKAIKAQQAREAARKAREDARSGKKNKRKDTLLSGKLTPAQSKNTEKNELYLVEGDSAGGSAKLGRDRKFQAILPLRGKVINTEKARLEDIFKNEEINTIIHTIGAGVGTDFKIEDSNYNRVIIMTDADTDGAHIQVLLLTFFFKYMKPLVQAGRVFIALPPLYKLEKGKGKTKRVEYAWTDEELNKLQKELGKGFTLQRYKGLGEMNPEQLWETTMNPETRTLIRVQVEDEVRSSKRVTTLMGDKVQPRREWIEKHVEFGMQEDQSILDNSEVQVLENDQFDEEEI
T2 sequence (P20831 whole entry): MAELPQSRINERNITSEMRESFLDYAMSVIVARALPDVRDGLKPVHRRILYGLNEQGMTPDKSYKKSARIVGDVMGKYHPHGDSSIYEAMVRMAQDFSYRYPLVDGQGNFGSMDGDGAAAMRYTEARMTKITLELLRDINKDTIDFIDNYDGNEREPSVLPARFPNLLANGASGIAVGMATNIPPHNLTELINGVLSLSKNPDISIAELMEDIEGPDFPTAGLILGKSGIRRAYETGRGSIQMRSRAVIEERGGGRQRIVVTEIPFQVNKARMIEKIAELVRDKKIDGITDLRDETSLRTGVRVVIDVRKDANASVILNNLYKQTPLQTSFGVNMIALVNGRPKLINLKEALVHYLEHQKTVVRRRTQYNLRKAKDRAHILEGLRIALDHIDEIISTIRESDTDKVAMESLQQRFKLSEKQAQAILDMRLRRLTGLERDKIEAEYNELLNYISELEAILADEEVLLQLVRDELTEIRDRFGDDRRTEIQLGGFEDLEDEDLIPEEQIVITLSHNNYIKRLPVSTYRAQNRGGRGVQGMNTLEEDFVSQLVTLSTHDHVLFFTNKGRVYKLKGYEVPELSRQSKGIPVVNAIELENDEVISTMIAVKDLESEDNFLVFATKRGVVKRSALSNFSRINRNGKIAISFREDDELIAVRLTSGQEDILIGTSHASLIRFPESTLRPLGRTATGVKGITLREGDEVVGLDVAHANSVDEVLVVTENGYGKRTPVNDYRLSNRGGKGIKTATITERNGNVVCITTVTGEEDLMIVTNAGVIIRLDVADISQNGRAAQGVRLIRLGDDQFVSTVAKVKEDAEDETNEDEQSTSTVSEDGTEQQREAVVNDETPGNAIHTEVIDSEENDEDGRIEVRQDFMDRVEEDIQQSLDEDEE
T2 sequence (P0A0K8 whole entry): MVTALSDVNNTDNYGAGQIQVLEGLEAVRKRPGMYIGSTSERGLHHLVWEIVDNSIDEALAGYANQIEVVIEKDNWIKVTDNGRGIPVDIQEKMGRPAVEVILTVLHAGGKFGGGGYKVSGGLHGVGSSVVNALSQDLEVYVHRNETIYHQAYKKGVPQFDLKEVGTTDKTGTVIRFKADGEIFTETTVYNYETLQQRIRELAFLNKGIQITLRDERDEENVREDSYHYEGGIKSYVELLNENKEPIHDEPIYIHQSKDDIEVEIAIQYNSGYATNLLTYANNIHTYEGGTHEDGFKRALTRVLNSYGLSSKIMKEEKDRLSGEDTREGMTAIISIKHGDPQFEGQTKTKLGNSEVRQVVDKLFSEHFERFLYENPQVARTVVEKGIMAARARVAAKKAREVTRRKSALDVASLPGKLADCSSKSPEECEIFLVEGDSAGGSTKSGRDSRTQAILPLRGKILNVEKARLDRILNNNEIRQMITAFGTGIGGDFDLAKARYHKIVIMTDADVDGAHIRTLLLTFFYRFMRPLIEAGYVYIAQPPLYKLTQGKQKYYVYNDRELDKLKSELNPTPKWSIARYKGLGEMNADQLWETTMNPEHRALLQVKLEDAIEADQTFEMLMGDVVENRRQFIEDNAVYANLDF
T4 sequence (P0AFI2 whole entry): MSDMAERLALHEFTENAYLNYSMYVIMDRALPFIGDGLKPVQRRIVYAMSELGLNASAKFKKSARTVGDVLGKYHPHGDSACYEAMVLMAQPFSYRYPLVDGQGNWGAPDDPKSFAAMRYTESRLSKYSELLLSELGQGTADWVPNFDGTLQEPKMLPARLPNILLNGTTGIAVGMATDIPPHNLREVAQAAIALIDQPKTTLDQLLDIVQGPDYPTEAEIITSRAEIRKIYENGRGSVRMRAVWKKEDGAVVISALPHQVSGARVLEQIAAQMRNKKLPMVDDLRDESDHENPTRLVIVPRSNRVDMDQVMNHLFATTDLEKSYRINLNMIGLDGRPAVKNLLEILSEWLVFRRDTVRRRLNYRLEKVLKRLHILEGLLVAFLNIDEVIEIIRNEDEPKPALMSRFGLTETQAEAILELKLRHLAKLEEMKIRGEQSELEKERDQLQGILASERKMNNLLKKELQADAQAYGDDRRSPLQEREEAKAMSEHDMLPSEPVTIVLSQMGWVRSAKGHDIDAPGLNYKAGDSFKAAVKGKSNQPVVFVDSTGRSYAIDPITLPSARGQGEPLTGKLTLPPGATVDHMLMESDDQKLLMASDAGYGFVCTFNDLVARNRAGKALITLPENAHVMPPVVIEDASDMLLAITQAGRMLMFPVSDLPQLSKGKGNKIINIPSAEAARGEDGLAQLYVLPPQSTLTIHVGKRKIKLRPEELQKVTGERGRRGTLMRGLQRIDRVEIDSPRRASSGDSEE
T4 sequence (P20083 whole entry): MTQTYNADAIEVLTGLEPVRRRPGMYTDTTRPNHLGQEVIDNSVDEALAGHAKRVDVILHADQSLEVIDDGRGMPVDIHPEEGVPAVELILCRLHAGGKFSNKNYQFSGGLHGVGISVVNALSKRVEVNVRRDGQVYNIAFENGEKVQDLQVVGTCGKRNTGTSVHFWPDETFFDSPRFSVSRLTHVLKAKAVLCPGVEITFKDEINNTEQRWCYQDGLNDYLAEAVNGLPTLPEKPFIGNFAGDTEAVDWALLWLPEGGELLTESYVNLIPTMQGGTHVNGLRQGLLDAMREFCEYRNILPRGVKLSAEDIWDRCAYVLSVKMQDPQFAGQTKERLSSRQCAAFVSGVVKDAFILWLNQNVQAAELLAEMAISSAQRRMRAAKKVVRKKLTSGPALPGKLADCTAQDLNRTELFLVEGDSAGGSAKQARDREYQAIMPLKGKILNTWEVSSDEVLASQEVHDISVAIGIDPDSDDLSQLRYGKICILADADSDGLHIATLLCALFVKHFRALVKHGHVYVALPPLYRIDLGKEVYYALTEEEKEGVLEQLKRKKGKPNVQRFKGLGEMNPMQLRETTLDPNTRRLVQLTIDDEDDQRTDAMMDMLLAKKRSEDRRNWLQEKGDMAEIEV

Molecule `Cc1[nH]c(C(=O)Nc2ccc(-c3n[nH]c(=O)o3)cc2N2CCC[C@H](N)C2)c(Cl)c1Cl.Cl` [Example 18, (S)-1-(2-(3,4-Dichloro-5-methyl-1H-pyrrole-2-carboxamido)-5-(5-oxo-4,5-dihydro-1,3,4-oxadiazol-2-yl)phenyl)piperidin-3-aminium chloride] has an IC50 (E. coli DNA gyrase; E. coli DNA gyrase) of 27.2 nM, a remaining activity at 0.1 µM (S. aureus DNA gyrase; S. aureus DNA gyrase, 0.1 μM compound, read-out: RA (residual activity of the enzyme)) of 41% and a remaining activity at 1 µM (S. aureus DNA gyrase; [8]) of 11%. For the same molecule, the MIC (P. aeruginosa ATCC 27853; [9]) was 64 µg/mL, the MIC (K. pneumoniae ATCC 10031) was 0.25 µg/mL and the MIC [1] was 4 µg/mL. The MIC (E. coli ATCC 25922; [10]) was 16 µg/mL, the MIC (E. faecalis ATCC 29212) was 2 µg/mL and the MIC [2] was > 64 µg/mL. For the same molecule, the MIC (S. aureus ATCC 29213; [11]) was 2 µg/mL, the MIC (A. baumannii ATCC 17978) was 16 µg/mL and the IC50 [3] was 26.5 ± 2.1 nM. The IC50 [4] was 406 nM.

For `Cc1[nH]c(C(=O)Nc2ccc(C(=O)NCc3n[nH]c(=O)o3)cc2N2CCNCC2)c(Cl)c1Cl.Cl` [Example 40, 4-(2-(3,4-Dichloro-5-methyl-1H-pyrrole-2-carboxamido)-5-(((5-oxo-4,5-dihydro-1,3,4-oxadiazol-2-yl)methyl)carbamoyl)phenyl)piperazin-1-ium chloride], the IC50 (E. coli DNA gyrase; E. coli DNA gyrase) was 22.4 nM, the remaining activity at 1 µM (S. aureus DNA gyrase; [8]) was 37% and the MIC (P. aeruginosa ATCC 27853; [9]) was ≥ 64 µg/mL. For the same molecule, the MIC (E. coli ATCC 25922; [10]) was ≥ 64 µg/mL, the MIC ([5]; A. baumannii (ATCC 19606), read-out: MIC) was ≥ 64 µg/mL and the MIC (E. faecium (ATCC 35667); E. faecium (ATCC 35667), read-out: MIC) was ≥ 64 µg/mL. The MIC (S. aureus ATCC 29213; [11]) was ≥ 64 µg/mL, the MIC ([6]; K. pneumoniae (ATCC 700603), read-out: MIC) was ≥ 64 µg/mL and the IC50 (E. coli topoisomerase IV; E. coli topo IV) was 2970 nM. The MIC ([7]; E. aerogenes (ATCC 13408), read-out: MIC) was ≥ 64 µg/mL and the IC50 [4] was 2700 nM.

With `Cc1[nH]c(C(=O)Nc2ccc(C(=O)NCC(=O)O)cc2N2CC[C@@H](N)C2)c(Cl)c1Cl` [Example 34, (R)-1-(5-((Carboxymethyl)carbamoyl)-2-(3,4-dichloro-5-methyl-1H-pyrrole-2-carboxamido)phenyl)pyrrolidin-3-aminium chloride] the IC50 (E. coli DNA gyrase) was 21.3 nM, the IC50 (S. aureus DNA gyrase; read-out: IC50) was 1240 nM and the MIC (P. aeruginosa ATCC 27853) was ≥ 64 µg/mL. For the same molecule, the MIC (E. coli ATCC 25922) was ≥ 64 µg/mL, the MIC [5] was ≥ 64 µg/mL and the MIC (E. faecium (ATCC 35667)) was ≥ 64 µg/mL. For the same molecule, the MIC (S. aureus ATCC 29213) was ≥ 64 µg/mL, the MIC [6] was ≥ 64 µg/mL and the IC50 (E. coli topoisomerase IV) was 2370 nM. The MIC [7] was ≥ 64 µg/mL and the IC50 [4] was 2030 nM.
